Measurements as given in ChEMBL document CHEMBL5316275 (J Med Chem, 2023).

Biological target: Albumin (Homo sapiens, UniProt P02768)
Experiment: Binding affinity to human serum albumin assessed as association constant measured after 18 hrs by equilibrium dialysis method

Chain of Albumin (P02768 whole entry): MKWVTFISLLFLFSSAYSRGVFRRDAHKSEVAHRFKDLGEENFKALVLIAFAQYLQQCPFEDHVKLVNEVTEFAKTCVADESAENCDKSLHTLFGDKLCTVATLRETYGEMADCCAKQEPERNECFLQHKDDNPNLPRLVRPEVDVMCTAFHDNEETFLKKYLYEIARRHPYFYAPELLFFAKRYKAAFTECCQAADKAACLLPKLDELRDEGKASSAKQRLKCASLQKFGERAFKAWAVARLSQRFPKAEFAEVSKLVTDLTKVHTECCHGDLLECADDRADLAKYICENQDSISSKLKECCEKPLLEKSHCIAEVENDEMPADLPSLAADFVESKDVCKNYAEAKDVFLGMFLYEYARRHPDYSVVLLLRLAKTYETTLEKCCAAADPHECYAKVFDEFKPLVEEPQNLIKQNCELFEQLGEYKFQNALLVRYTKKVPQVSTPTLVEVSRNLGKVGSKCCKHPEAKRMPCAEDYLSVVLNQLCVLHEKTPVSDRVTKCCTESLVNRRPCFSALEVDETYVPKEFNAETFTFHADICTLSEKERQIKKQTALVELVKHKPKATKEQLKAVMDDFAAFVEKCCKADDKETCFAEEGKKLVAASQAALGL

Structure (SMILES)	K
COc1c(C)c2c(c(O)c1C/C=C(\C)CCC(=O)OCCN1CCOCC1)C(=O)OC2 [MYCOPHENOLATE MOFETIL]	0.83 10^5/M
COC(=O)CC/C(C)=C/Cc1c(O)c2c(c(C)c1OC)COC2=O	1.91 10^5/M
